Patent US20090283473A1, “PLANT MATERIALS EXTRACTION METHOD” (Xylon Biotechnologies Ltd., priority 2002, published 2009)

Tests used:
Format in all cases: cell-based
[1] = test system: Seven species of bacteria and one species of fungus; experiment: Disk diffusion assay, whole panel; conditions: all bacteria and fungus of the screening
Description: (§1) Microorganisms: Laboratory strains of bacteria and fungus were obtained from Dr. Neil Towers' and Dr. Jovel's lab, The University of British Columbia. Seven species of bacteria and one species of fungus will be used in the screening process. The bacteria strains consisted of Staphylococcus aureus, methicillin resistant Staphylococcus aureus, Bacillus subtilis and Enterococcus faecalis, Escherichia coli, Pseudomonas aeruginosa, and Salmonella typhimurium. The fungal species was Candida albicans.
(§2) Methods: Disk diffusion assay on agar plates inoculated with the organisms being studies. The plates were divided into quadrants or sixths using a black marking pen. In quadrant 1 and 2, negative and positive controls were run (no treatment and gentamicin). Test compounds were run on the remaining available portions.

Pseudomonas aeruginosa = experiment: Disk diffusion assay on agar plates; design: key: “+” active; “−” not active
Description: as §1, §2

Candida albicans = experiment: Disk diffusion assay on agar plates; design: key: “+” active; “−” not active
Description: as §1, §2

Enterococcus faecalis = experiment: Disk diffusion assay on agar plates; design: key: “+” active; “−” not active
Description: as §1, §2

Compound	anti-microbial activity across the panel (in words) [1]	Anti-microbial activity P.a (Pseudomonas aeruginosa)	Anti-microbial activity C.a (Candida albicans)	Anti-microbial activity E.f. (Enterococcus faecalis)
CC(C)c1cccc(=O)c(O)c1 [Hinokitiol standard, 2,4,6-Cycloheptatrien-1-one,2-hydroxy-4-(1-methylethyl)]	demonstrated activities against all the bacteria and fungus			
CC1(C)C=CC=C(C(=O)O)C=C1 [Thujic acid standard, Thujic acid]	showed activities against some bacteria and fungus	−		
Gentamicin	active against all the tested bacteria but not against C. albicans		−	+
